Measured values from US6063778A, “Cephalosporin derivatives and processes for the preparation thereof” (Il-Dong Pharm. Co., Ltd., priority 1995, dated 2000).
Converted amounts (≈) assume the structure as drawn. Where two headings read alike, the source gives them in different places.

Columns and labels:
[1] = test system: Staphylococcus aureus, Escherichia coli and Pseudomonas aeruginosa; assay: MIC by agar dilution, comparison in words; type: cell-based; settings: against Staphylococcus aureus, vs Cefotaxime
Experimental: (§1) These MIC values were determined by agar dilution method: that is, two-fold dilutions of each of the test compounds were made and dispersed in a Mueller-Hinton Broth medium. Standard test strain which had the 10^6 CFU per ml was inoculated on the medium, and was incubated at 37° C. for 18 to 20 hours.

Acute toxicity study = type: in vivo; settings: in vivo
Experimental: (§2) In order to illustrate usefulness of the compounds of the present invention, acute toxicity test of the compounds synthesized in the above Examples were carried out. Each dose of the compounds dissolved in saline and buffer solution (PH=7.0) was administered by intravenous or subcutaneous injection. Mortalities of the animals was recorded seven days latter.
(§3) .asterisk-pseud. Mouse: Male ICR strain, 4 weeks

Escherichia coli DC 2 = assay: MIC by agar dilution, in vitro activity test; type: cell-based; settings: DC2, 37° C., 18 to 20 hours, read-out: Minimal Inhibitory Concentration (MIC)
Experimental: as §1

[2] = test system: Pseudomonas aeruginosa 1592E; assay: MIC by agar dilution, in vitro activity test; type: cell-based; settings: 37° C., 18 to 20 hours, read-out: Minimal Inhibitory Concentration (MIC)
Experimental: as §1

[3] = test system: Pseudomonas aeruginosa 9027; assay: MIC by agar dilution, in vitro activity test; type: cell-based; settings: 37° C., 18 to 20 hours, read-out: Minimal Inhibitory Concentration (MIC)
Experimental: as §1

Escherichia coli 1507E = assay: MIC by agar dilution, in vitro activity test; type: cell-based; settings: read-out: Minimal Inhibitory Concentration (MIC)
Experimental: as §1

[4] = test system: Staphylococcus aureus SG511; assay: MIC by agar dilution, in vitro activity test; type: cell-based; settings: 37° C., 18 to 20 hours, read-out: Minimal Inhibitory Concentration (MIC)
Experimental: as §1

[5] = test system: Staphylococcus aureus 285; assay: MIC by agar dilution, in vitro activity test; type: cell-based; settings: 37° C., 18 to 20 hours, read-out: Minimal Inhibitory Concentration (MIC)
Experimental: as §1

[6] = test system: Streptococcus pyogenes 77A; assay: MIC by agar dilution, in vitro activity test; type: cell-based; settings: 37° C., 18 to 20 hours, read-out: Minimal Inhibitory Concentration (MIC)
Experimental: as §1

Enterobacter cloace P99 = assay: MIC by agar dilution, in vitro activity test; type: cell-based; settings: P99, 20 h, read-out: Minimal Inhibitory Concentration (MIC)
Experimental: as §1

[7] = test system: Enterobacter cloace 1321E; assay: MIC by agar dilution, in vitro activity test; type: cell-based; settings: 37° C., 18 to 20 hours, read-out: Minimal Inhibitory Concentration (MIC)
Experimental: as §1

[8] = test system: Klebsiella aerogenes 1082E; assay: MIC by agar dilution, in vitro activity test; type: cell-based; settings: 37° C., 18 to 20 hours, read-out: Minimal Inhibitory Concentration (MIC)
Experimental: as §1

Escherichia coli 078 = assay: MIC by agar dilution, in vitro activity test; type: cell-based; settings: 37° C., 18 to 20 hours, read-out: Minimal Inhibitory Concentration (MIC)
Experimental: as §1

Salmonella typhimurium = assay: MIC by agar dilution, in vitro activity test; type: cell-based; settings: Salmonella enterica, 37° C., 18 to 20 hours, read-out: Minimal Inhibitory Concentration (MIC)
Experimental: as §1

[9] = test system: Klebsiella aerogenes 1522E; assay: MIC by agar dilution, in vitro activity test; type: cell-based; settings: read-out: Minimal Inhibitory Concentration (MIC)
Experimental: as §1

[10] = test system: Staphylococcus aureus 503; assay: MIC by agar dilution, in vitro activity test; type: cell-based; settings: 37° C., 18 to 20 hours, read-out: Minimal Inhibitory Concentration (MIC)
Experimental: as §1

[11] = test system: Pseudomonas aeruginosa 1771M; assay: MIC by agar dilution, in vitro activity test; type: cell-based; settings: 20 h, read-out: Minimal Inhibitory Concentration (MIC)
Experimental: as §1

Escherichia coli TEM = assay: MIC by agar dilution, in vitro activity test; type: cell-based; settings: 20 h, read-out: Minimal Inhibitory Concentration (MIC)
Experimental: as §1

Escherichia coli DC 0 = assay: MIC by agar dilution, in vitro activity test; type: cell-based; settings: DC0, 37° C., 18 to 20 hours, read-out: Minimal Inhibitory Concentration (MIC)
Experimental: as §1

[12] = test system: Streptococcus faecium MD 8b; assay: MIC by agar dilution, in vitro activity test; type: cell-based; settings: Enterococcus faecium, MD8B, 20 h, read-out: Minimal Inhibitory Concentration (MIC)
Experimental: as §1

[13] = test system: Pseudomonas aeruginosa 1771; assay: MIC by agar dilution, in vitro activity test; type: cell-based; settings: 37° C., 18 to 20 hours, read-out: Minimal Inhibitory Concentration (MIC)
Experimental: These MIC values were determined by agar dilution method: that is, two-fold dilutions of each of the test compounds were made and dispersed in a Mueller-Hinton Broth medium.

Mouse = assay: Acute toxicity study; type: in vivo; settings: 10080 min
Experimental: as §2, §3

[14] = test system: Streptococcus pyogenes 71A; assay: MIC by agar dilution, in vitro activity test; type: cell-based; settings: 37° C., 18 to 20 hours, read-out: Minimal Inhibitory Concentration (MIC)
Experimental: as §1

[15] = test system: Pseudomonas aeruginosa 9071; assay: MIC by agar dilution, in vitro activity test; type: cell-based; settings: 37° C., 18 to 20 hours, read-out: Minimal Inhibitory Concentration (MIC)
Experimental: as §1

[16] = Escherichia coli 1507E, agar dilution, 37° C., 18 to 20 hours
[17] = Klebsiella aerogenes 1522E, agar dilution, 37° C., 18 to 20 hours
[18] = iv, i.v, male ICR mouse, 4 weeks, mortality at seven days, read-out: LD50 i.v
[19] = sc, s.c, male ICR mouse, 4 weeks, mortality at seven days, read-out: LD50 s.c

SMILES	MICs compared with Cefotaxime [1]	MIC (Escherichia coli DC 2) [µg/mL]	MIC [2] [µg/mL]	MIC [3] [µg/mL]	MIC (Escherichia coli 1507E; [16]) [µg/mL]	MIC [4] [µg/mL]	MIC [5] [µg/mL]	MIC [6] [µg/mL]	MIC (Enterobacter cloace P99) [µg/mL]	MIC [7] [µg/mL]	MIC [8] [µg/mL]	MIC (Escherichia coli 078) [µg/mL]	MIC (Salmonella typhimurium) [µg/mL]	MIC [9, 17] [µg/mL]	MIC [10] [µg/mL]	MIC [11] [µg/mL]	MIC (Escherichia coli TEM) [µg/mL]	MIC (Escherichia coli DC 0) [µg/mL]	MIC [12] [µg/mL]	MIC [13] [µg/mL]	also measured
CC[N+](C)(CC=CC(N)=O)C/C=C/C1=C(C(=O)[O-])N2C(=O)[C@@H](NC(=O)/C(=N\OC)c3csc(N)n3)[C@H]2SC1 (stereo partly drawn) [Example 6, 7β-[(Z)-2-(2-aminothiazol-4-yl)-2-methoxyiminoacetamido]-3-[(E)-3-[(1-carbamoyl-1-propen-3-yl)-3-ethylmethylammonio]-1-propen-1-yl]3-cephem-4-carboxylate]	superior to that of Cefotaxime	0.05 (≈ 0.0887 µM)	3.1 (≈ 5.5 µM)	6.3 (≈ 11.2 µM)	0.05 (≈ 0.0887 µM)	0.8 (≈ 1.42 µM)	0.4 (≈ 0.71 µM)	0.012 (≈ 0.0213 µM)	1.6 (≈ 2.84 µM)	0.025 (≈ 0.0444 µM)	3.1 (≈ 5.5 µM)	0.12 (≈ 0.213 µM)	0.1 (≈ 0.177 µM)	0.1 (≈ 0.177 µM)	0.8 (≈ 1.42 µM)	0.4 (≈ 0.71 µM)	0.05 (≈ 0.0887 µM)	< 0.006	> 100	3.1 (≈ 5.5 µM)	LD50 at 168 h (Acute toxicity study; mouse, iv, i.v, male ICR mouse, 4 weeks, mortality at seven days, read-out: LD50 i.v): > 3000 mg/kg; LD50 at 168 h (Acute toxicity study; mouse, iv, intravenous routes, read-out: acute toxicity in intravenous routes): > 2000 mg/kg; LD50 at 168 h (Acute toxicity study; mouse, sc, s.c, male ICR mouse, 4 weeks, mortality at seven days, read-out: LD50 s.c): > 3000 mg/kg
CC[N+](C)(CC=CC(N)=O)C/C=C/C1=C(C(=O)[O-])N2C(=O)[C@@H](NC(=O)/C(=N\OCCF)c3csc(N)n3)[C@H]2SC1 (stereo partly drawn) [Example 12, 7β-[(Z)-2-(2-aminothiazol-4-yl)-2-fluoroethoxyiminoacetamdo]-3-[(E)-3-[(1-carbamoyl-1-propen-3-yl)-3-ethylmethylammonio]-1-propen-1-yl]3-cephem-4-carboxylate]	superior to that of Cefotaxime	0.05 (≈ 0.0839 µM)	6.3 (≈ 10.6 µM)	12.5 (≈ 21 µM)	0.05 (≈ 0.0839 µM)	0.8 (≈ 1.34 µM)	0.8 (≈ 1.34 µM)	0.025 (≈ 0.042 µM)	1.6 (≈ 2.69 µM)	0.05 (≈ 0.0839 µM)	3.1 (≈ 5.2 µM)	0.025 (≈ 0.042 µM)	0.4 (≈ 0.672 µM)	0.1 (≈ 0.168 µM)	0.8 (≈ 1.34 µM)	0.8 (≈ 1.34 µM)	0.05 (≈ 0.0839 µM)	< 0.006	> 100	6.3 (≈ 10.6 µM)	LD50 at 168 h (Acute toxicity study; [18]): > 2000 mg/kg; LD50 at 168 h (Acute toxicity study; [19]): > 3000 mg/kg; acute toxicity in intravenous routes (Mouse): > 2000 mg/kg; acute toxicity in subcutaneous routes (Mouse): > 3000 mg/kg
Cc1ncsc1C[N+](C)(C)C/C=C/C1=C(C(=O)[O-])N2C(=O)[C@@H](NC(=O)/C(=N\OCCF)c3nsc(N)n3)[C@H]2SC1 [Example 14, 7β-[(Z)-2-(5-amino-1,2,4-thiadiazol-3-yl)-2-fluoroethoxyiminoacetamido]-3-[(E)-3-[(4-methylthiazol-5-yl)-methyldimethylammonio]-1-propen-1-yl]3-cephem-4-carboxylate]	superior to that of Cefotaxime	0.05 (≈ 0.0819 µM)	3.1 (≈ 5.08 µM)	–	–	0.4 (≈ 0.655 µM)	0.8 (≈ 1.31 µM)	–	0.4 (≈ 0.655 µM)	0.012 (≈ 0.0196 µM)	3.1 (≈ 5.08 µM)	0.012 (≈ 0.0196 µM)	0.1 (≈ 0.164 µM)	–	0.8 (≈ 1.31 µM)	0.4 (≈ 0.655 µM)	0.025 (≈ 0.0409 µM)	< 0.006	> 100	3.1 (≈ 5.08 µM)	MIC [14]: 0.05 µg/mL (≈ 0.0819 µM); MIC (Escherichia coli 1507E; Escherichia coli, 1507E, 20 h): 0.025 µg/mL (≈ 0.0409 µM); MIC [15]: 12.5 µg/mL (≈ 20.5 µM); MIC ([9]; Klebsiella aerogenes, 1522E, 20 h): 0.025 µg/mL (≈ 0.0409 µM)
CC[N+](C)(CC=CC(N)=O)C/C=C/C1=C(C(=O)[O-])N2C(=O)[C@@H](NC(=O)/C(=N\OCCF)c3nsc(N)n3)[C@H]2SC1 (stereo partly drawn) [Example 15, 7β-[(Z)-2-(5-amino-1,2,4-thiadiazol-3-yl)-2-fluoroethoxyiminoacetamido]-3-[(E)-3-[(1-carbamoyl-1-propen-3-yl)-3-ethylmethylammonio]-1-propen-1-yl]3-cephem-4-carboxylate]	–	0.1 (≈ 0.168 µM)	3.1 (≈ 5.2 µM)	–	0.1 (≈ 0.168 µM)	0.8 (≈ 1.34 µM)	0.8 (≈ 1.34 µM)	–	0.8 (≈ 1.34 µM)	0.05 (≈ 0.0838 µM)	3.1 (≈ 5.2 µM)	0.025 (≈ 0.0419 µM)	0.2 (≈ 0.335 µM)	0.05 (≈ 0.0838 µM)	0.8 (≈ 1.34 µM)	0.8 (≈ 1.34 µM)	0.05 (≈ 0.0838 µM)	0.012 (≈ 0.0201 µM)	> 100	3.1 (≈ 5.2 µM)	LD50 at 168 h (Acute toxicity study; [18]): > 2000 mg/kg; LD50 at 168 h (Acute toxicity study; [19]): > 3000 mg/kg; acute toxicity in intravenous routes (Mouse): > 2000 mg/kg; acute toxicity in subcutaneous routes (Mouse): > 3000 mg/kg; MIC [14]: 0.025 µg/mL (≈ 0.0419 µM); MIC [15]: 3.1 µg/mL (≈ 5.2 µM)
